Legend:
JAK1 = JAK1 (Homo sapiens, UniProt P23458); settings: in words; cited from earlier work
[1] = Particle size distribution by laser diffraction; assay type: physicochemical; settings: SHR0302 used in Example 1, Malvern Hydro MV, ethyl acetate dispersion
From the text: In the pharmaceutical compositions of the present invention, the active ingredient is present as small particles. Particle size of the drug can be assessed using laser diffraction methods. Laser diffraction is recognized by standards and guidance agencies including ISO and ASTM and is widely used to determine particle size distributions. In conducting the assessment, the sample is passed through a laser beam, which results in laser light scattered at a range of angles. Detectors placed at fixed angles measure the intensity of light scattered at that position. A mathematical model is then applied to generate a particle size distribution. The particle size values reported herein are determined by using a liquid or wet dispersion method.
In particle size determinations, the median value is defined as the value where half of the population resides above this point, and half resides below this point. For particle size distributions the median is called the D50. The D50 is the size that splits the distribution with half above and half below this diameter. The distribution width may also be characterized by citing one, two or three values on the x-axis, typically some combination of the D10, D50, and D90. The D50, the median, has been defined above as the diameter where half of the population lies below this value. Similarly, 90 percent of the distribution lies below the D90, and 10 percent of the population lies below the D10.
A pharmaceutical composition comprising 3% SHR0302 suspended in dimethicone was prepared. The primary particle size distribution of the SHR0302 is characterized by a D10 value of less than about 0.25 μm; a D50 value of less than about 0.7 μm; and a D90 value of less than about 5 μm. The pharmaceutical composition was a transparent solution due to the particles being too small to scatter visible light. A Malvern Metasizer Model 3000 using the Hydro MV dispersion unit was used to determine the particle size distribution profile of SHR0302. […]

[2] = orally administered, women; cited from earlier work

Sequence of JAK1 (P23458 whole entry): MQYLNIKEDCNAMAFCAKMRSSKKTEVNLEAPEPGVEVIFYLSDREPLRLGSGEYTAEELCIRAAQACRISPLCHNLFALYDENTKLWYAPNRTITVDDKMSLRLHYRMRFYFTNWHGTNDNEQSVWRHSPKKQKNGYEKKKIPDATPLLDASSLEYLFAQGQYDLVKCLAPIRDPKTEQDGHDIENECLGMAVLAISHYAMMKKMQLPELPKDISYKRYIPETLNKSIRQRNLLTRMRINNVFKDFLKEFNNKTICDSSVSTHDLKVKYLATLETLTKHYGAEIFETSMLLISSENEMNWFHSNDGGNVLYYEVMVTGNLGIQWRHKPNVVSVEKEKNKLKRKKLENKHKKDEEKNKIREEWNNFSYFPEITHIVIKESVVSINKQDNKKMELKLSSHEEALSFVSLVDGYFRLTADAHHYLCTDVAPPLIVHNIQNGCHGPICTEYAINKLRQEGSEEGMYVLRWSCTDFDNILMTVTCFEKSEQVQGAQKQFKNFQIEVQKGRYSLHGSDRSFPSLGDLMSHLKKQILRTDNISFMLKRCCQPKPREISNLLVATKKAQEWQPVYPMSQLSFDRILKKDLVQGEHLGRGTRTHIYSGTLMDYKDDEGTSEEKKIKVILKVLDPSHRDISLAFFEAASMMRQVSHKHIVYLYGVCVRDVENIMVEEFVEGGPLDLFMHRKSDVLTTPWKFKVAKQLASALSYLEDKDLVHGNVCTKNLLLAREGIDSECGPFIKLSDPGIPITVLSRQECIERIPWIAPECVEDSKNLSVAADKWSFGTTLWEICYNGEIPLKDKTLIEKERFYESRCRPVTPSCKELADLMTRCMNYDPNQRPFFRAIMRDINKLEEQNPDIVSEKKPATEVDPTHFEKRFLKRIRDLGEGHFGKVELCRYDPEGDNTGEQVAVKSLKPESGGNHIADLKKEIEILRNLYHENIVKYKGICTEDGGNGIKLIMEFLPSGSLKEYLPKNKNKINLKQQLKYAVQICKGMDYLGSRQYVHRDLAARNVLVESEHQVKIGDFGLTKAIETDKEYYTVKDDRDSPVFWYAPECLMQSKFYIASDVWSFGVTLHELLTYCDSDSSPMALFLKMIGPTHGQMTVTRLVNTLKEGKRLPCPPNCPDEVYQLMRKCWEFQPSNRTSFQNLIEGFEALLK

Compound	inhibition of JAK1 (JAK1)	selectivity for JAK1 over JAK2 (JAK1)	primary particle size distribution D10 [1]	primary particle size distribution D50 [1]	primary particle size distribution D90 [1]	efficacy in treatment of acne [2]
COc1nsc(NC(=O)N2C[C@H]3C[C@H](N(C)c4ncnc5[nH]ccc45)C[C@H]3C2)n1 [SHR0302, (3aR,5S,6aS)-N-(3-methoxyl-1,2,4-thiadiazol-5-yl)-5-(methyl(7H-pyrrolo[2,3-d]pyrimidin-4-yl)amino)hexahydrocyclopenta[c]pyrrole-2(1H)-carboxamide]	potent	high selectively for JAK1 over JAK2	less than 0.25 μm	less than 0.7 μm	less than 5 μm	–
CC(=O)S[C@@H]1CC2=CC(=O)CC[C@]2(C)[C@H]2CC[C@@]3(C)[C@@H](CC[C@@]34CCC(=O)O4)[C@H]12 [spironolactone, 17-hydroxy-7α-mercapto-3-oxo-17α-pregn-4-ene-21-carboxylic acid γ-lactone acetate]	–	–	–	–	–	efficacious

Reference: patent publication US20240382502A1, “COMPOSITIONS AND METHODS FOR DEEP DERMAL DRUG DELIVERY” (ARCUTIS BIOTHERAPEUTICS, INC., priority 2020, published 2024)
